Patent US8283361B2 (AstraZeneca AB, priority 2008, dated 2012)

molecular target: S. aureus GyrB ATPase (Staphylococcus aureus, UniProt P0A0K8); experiment: biochemical; settings: compound at 1 μM; one value per test if tested more than once; 1 µM
Description: S. aureus GyrB ATPase Inhibition Activity: Compounds may be tested for inhibition of S. aureus GyrB ATPase activity using an ammonium molybdate/malachite green-based phosphate detection assay (Lanzetta, P. A., L. J. Alvarez, P. S. Reinach, and O. A. Candia, 1979, 100: 95-97). Assays can be performed in multiwell plates in 30 μl reactions containing: 50 mM Hepes buffer pH 7.5, 75 mM ammonium acetate, 8.0 mM magnesium chloride, 0.5 mM ethylenediaminetetraacetic acid, 5% glycerol, 1.0 mM 1,4-Dithio-DL-threitol, 200 nM bovine serum albumin, 1.0 μg/m1 sheared salmon sperm DNA, 250 pM E. coli GyrA, 250 pM S. aureus GyrB, 250 μM ATP, and compound in dimethylsulfoxide. Reactions can be quenched with 30 μl of ammonium molybdate/malachite green detection reagent containing 1.2 mM malachite green hydrochloride, 8.5 mM ammonium molybdate tetrahydrate, and 1 M hydrochloric acid. […] An IC50 measurement of compound potency for each compound can be determined from reactions performed in the presence of 10 different compound concentrations.

S. aureus GyrB ATPase, sequence (P0A0K8 whole entry): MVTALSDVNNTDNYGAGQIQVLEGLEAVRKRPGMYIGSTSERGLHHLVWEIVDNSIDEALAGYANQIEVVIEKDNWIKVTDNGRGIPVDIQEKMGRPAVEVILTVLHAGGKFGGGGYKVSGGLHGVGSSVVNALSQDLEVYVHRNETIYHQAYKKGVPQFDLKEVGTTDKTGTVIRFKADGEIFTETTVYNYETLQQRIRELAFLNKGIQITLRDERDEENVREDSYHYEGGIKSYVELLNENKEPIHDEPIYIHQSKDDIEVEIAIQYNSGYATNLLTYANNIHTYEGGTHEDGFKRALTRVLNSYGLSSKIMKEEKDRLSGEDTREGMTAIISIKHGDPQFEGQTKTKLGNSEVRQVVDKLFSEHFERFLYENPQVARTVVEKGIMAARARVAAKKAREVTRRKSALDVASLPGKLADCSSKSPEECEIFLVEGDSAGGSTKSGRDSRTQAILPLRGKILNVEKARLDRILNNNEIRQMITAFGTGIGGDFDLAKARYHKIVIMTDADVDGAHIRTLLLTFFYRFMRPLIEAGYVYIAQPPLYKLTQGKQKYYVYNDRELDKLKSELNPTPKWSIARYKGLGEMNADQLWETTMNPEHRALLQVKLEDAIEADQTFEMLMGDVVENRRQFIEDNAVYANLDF
S. aureus GyrB ATPase, sequence (P0AES4 whole entry, further chain): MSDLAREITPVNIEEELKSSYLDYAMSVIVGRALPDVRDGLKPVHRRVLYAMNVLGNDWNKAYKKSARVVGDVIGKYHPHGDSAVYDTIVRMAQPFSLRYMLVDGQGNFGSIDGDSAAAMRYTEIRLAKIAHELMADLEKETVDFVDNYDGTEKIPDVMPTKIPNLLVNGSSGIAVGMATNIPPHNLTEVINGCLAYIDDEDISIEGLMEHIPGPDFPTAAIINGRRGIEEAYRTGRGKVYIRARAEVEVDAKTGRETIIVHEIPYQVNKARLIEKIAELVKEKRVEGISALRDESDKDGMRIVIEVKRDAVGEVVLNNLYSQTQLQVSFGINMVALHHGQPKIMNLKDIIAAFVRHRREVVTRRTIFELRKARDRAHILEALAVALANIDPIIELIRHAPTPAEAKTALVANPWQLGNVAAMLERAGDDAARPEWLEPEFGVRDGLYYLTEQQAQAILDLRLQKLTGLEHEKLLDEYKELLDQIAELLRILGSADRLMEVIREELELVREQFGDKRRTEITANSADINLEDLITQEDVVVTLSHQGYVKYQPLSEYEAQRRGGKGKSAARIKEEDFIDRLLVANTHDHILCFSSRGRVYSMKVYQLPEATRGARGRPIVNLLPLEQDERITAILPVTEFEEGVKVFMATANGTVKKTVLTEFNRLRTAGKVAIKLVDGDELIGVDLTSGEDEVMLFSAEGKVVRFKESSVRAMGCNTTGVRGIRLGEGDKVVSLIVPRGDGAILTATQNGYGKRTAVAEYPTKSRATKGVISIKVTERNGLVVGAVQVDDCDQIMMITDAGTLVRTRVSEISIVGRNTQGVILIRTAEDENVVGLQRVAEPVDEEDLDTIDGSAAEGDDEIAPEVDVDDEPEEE

Row | Compound | % Inhibition of S. aureus GyrB ATPase [%]
1 | CCNC(=O)Nc1cc(-c2nc(C(F)(F)F)cs2)c(-c2ccc3c(c2)c(=O)c(C(=O)O)cn3[C@H](CO)CC(C)C)cn1 [Example 95, (S)-6-(6-(3-ethylureido)-4-(4-(trifluoromethyl)thiazol-2-yl)pyridin-3-yl)-1-(1-hydroxy-4-methylpentan-2-yl)-4-oxo-1,4-dihydroquinoline-3-carboxylic acid] | 109

same assay, conditions: compound at 1 μM; one value per test if tested more than once; read-out: % Inhibition of S. aureus GyrB ATPase

Row | Compound | inhibition at 1 µM [%]
2 | CCNC(=O)Nc1cc(-c2nc(C(F)(F)F)cs2)c(-c2ccc3c(c2)c(=O)c(C(=O)O)cn3[C@H](C)CO)cn1 [Example 72, (R)-6-(6-(3-ethylureido)-4-(4-(trifluoromethyl)thiazol-2-yl)pyridin-3-yl)-1-(1-hydroxypropan-2-yl)-4-oxo-1,4-dihydroquinoline-3-carboxylic acid] | 103
3 | CCNC(=O)Nc1cc(-c2nc(C(F)(F)F)cs2)c(-c2ccc3c(c2)c(=O)c(C(=O)O)cn3[C@H](CO)[C@@H](C)O)cn1 [Example 73, 1-((2R,3R)-1,3-dihydroxybutan-2-yl)-6-(6-(3-ethylureido)-4-(4-(trifluoromethyl)thiazol-2-yl)pyridin-3-yl)-4-oxo-1,4-dihydroquinoline-3-carboxylic acid] | 105
4 | CCNC(=O)Nc1cc(-c2nc(C(F)(F)F)cs2)c(-c2ccc3c(c2)c(=O)c(C(=O)O)cn3[C@H](CO)Cc2ccccc2)cn1 [Example 74, (S)-6-(6-(3-ethylureido)-4-(4-(trifluoromethyl)thiazol-2-yl)pyridin-3-yl)-1-(1-hydroxy-3-phenylpropan-2-yl)-4-oxo-1,4-dihydroquinoline-3-carboxylic acid] | 103
5 | CCNC(=O)Nc1cc(-c2nc(C(F)(F)F)cs2)c(-c2ccc3c(c2)c(=O)c(C(=O)O)cn3C(CO)CO)cn1 [Example 75, 1-(1,3-dihydroxypropan-2-yl)-6-(6-(3-ethylureido)-4-(4-(trifluoromethyl)thiazol-2-yl)pyridin-3-yl)-4-oxo-1,4-dihydroquinoline-3-carboxylic acid] | 102
6 | CCNC(=O)Nc1cc(-c2nc(C(F)(F)F)cs2)c(-c2ccc3c(c2)c(=O)c(C(=O)O)cn3[C@@H](CO)C(C)(C)C)cn1 [Example 76, (R)-6-(6-(3-ethylureido)-4-(4-(trifluoromethyl)thiazol-2-yl)pyridin-3-yl)-1-(1-hydroxy-3,3-dimethylbutan-2-yl)-4-oxo-1,4-dihydroquinoline-3-carboxylic acid] | 110
7 | CCNC(=O)Nc1cc(-c2nc(C(F)(F)F)cs2)c(-c2ccc3c(c2)c(=O)c(C(=O)O)cn3[C@@H](CO)Cc2ccc(O)cc2)cn1 [Example 77, (R)-6-(6-(3-ethylureido)-4-(4-(trifluoromethyl)thiazol-2-yl)pyridin-3-yl)-1-(1-hydroxy-3-(4-hydroxyphenyl)propan-2-yl)-4-oxo-1,4-dihydroquinoline-3-carboxylic acid] | 110
8 | CCNC(=O)Nc1cc(-c2nc(C(F)(F)F)cs2)c(-c2ccc3c(c2)c(=O)c(C(=O)O)cn3[C@H](CO)C2CCCCC2)cn1 [Example 78, (S)-1-(1-cyclohexyl-2-hydroxyethyl)-6-(6-(3-ethylureido)-4-(4-(trifluoromethyl)thiazol-2-yl)pyridin-3-yl)-4-oxo-1,4-dihydroquinoline-3-carboxylic acid] | 102
9 | CCNC(=O)Nc1cc(-c2nc(C(F)(F)F)cs2)c(-c2ccc3c(c2)c(=O)c(C(=O)O)cn3[C@H](CC)CO)cn1 [Example 79, (R)-6-(6-(3-ethylureido)-4-(4-(trifluoromethyl)thiazol-2-yl)pyridin-3-yl)-1-(1-hydroxybutan-2-yl)-4-oxo-1,4-dihydroquinoline-3-carboxylic acid] | 97
10 | CCNC(=O)Nc1cc(-c2nc(C(F)(F)F)cs2)c(-c2ccc3c(c2)c(=O)c(C(=O)O)cn3C(CO)C2CCOCC2)cn1 (centres unmarked) [Example 80, 6-(6-(3-ethylureido)-4-(4-(trifluoromethyl)thiazol-2-yl)pyridin-3-yl)-1-(-hydroxy-1-(tetrahydro-H-pyran-4-yl)ethyl)-4-oxo-1,4-dihydroquinoline-3-carboxylic acid] | 96
11 | CCNC(=O)Nc1cc(-c2nc(C(F)(F)F)cs2)c(-c2ccc3c(c2)c(=O)c(C(=O)O)cn3[C@H](CO)C(C)(C)C)cn1 [Example 81, 6-{6-[(ethylcarbamoyl)amino]-4-[4-(trifluoromethyl)-1,3-thiazol-2-yl]pyridin-3-yl}-1-[(1S)-1-(hydroxymethyl)-2,2-dimethylpropyl]-4-oxo-1,4-dihydroquinoline-3-carboxylic acid] | 96
12 | CCNC(=O)Nc1cc(-c2nc(C(F)(F)F)cs2)c(-c2ccc3c(c2)c(=O)c(C(=O)O)cn3[C@H](CO)C(C)C)cn1 [Example 82, 6-{6-[(ethylcarbamoyl)amino]-4-[4-(trifluoromethyl)-1,3-thiazol-2-yl]pyridin-3-yl}-1-[(1S)-1-(hydroxymethyl)-2-methylpropyl]-4-oxo-1,4-dihydroquinoline-3-carboxylic acid] | 111
13 | CCNC(=O)Nc1cc(-c2nc(C(F)(F)F)cs2)c(-c2ccc3c(c2)c(=O)c(C(=O)O)cn3[C@H](CO)CC(C)C)cn1 [Example 83, (S)-6-(6-(3-ethylureido)-4-(4-(trifluoromethyl)thiazol-2-yl)pyridin-3-yl)-1-(1-hydroxy-4-methylpentan-2-yl)-4-oxo-1,4-dihydroquinoline-3-carboxylic acid] | 96
14 | CCCNC(=O)Nc1cc(-c2nc(C(F)(F)F)cs2)c(-c2ccc3c(c2)c(=O)c(C(=O)O)cn3[C@H](CO)C(C)(C)C)cn1 [Example 84, (S)-1-(1-hydroxy-3,3-dimethylbutan-2-yl)-4-oxo-6-(6-(3-propylureido)-4-(4-(trifluoromethyl)thiazol-2-yl)pyridin-3-yl)-1,4-dihydroquinoline-3-carboxylic acid] | 95
15 | CCNC(=O)Nc1cc(-c2nc(C(F)(F)F)cs2)c(-c2ccc3c(c2)c(=O)c(C(=O)O)cn3[C@@H](CO)C(C)C)cn1 [Example 85, (R)-6-(6-(3-ethylureido)-4-(4-(trifluoromethyl)thiazol-2-yl)pyridin-3-yl)-1-(1-hydroxy-3-methylbutan-2-yl)-4-oxo-1,4-dihydroquinoline-3-carboxylic acid] | 96
16 | CCNC(=O)Nc1cc(-c2nc(C(F)(F)F)cs2)c(-c2ccc3c(c2)c(=O)c(C(=O)O)cn3[C@@H](CC)CO)cn1 [Example 86, (S)-6-(6-(3-ethylureido)-4-(4-(trifluoromethyl)thiazol-2-yl)pyridin-3-yl)-1-(1-hydroxybutan-2-yl)-4-oxo-1,4-dihydroquinoline-3-carboxylic acid] | 98
17 | CCCNC(=O)Nc1cc(-c2nc(C(F)(F)F)cs2)c(-c2ccc3c(c2)c(=O)c(C(=O)O)cn3[C@H](CO)CC(C)C)cn1 [Example 87, (S)-1-(1-hydroxy-4-methylpentan-2-yl)-4-oxo-6-(6-(3-propylureido)-4-(4-(trifluoromethyl)thiazol-2-yl)pyridin-3-yl)-1,4-dihydroquinoline-3-carboxylic acid] | 96
18 | CCNC(=O)Nc1cc(-c2nc(C(F)(F)F)cs2)c(-c2ccc3c(c2)c(=O)c(C(=O)O)cn3C[C@@H]2CCCO2)cn1 [Example 88, (S)-6-(6-(3-ethylureido)-4-(4-(trifluoromethyl)thiazol-2-yl)pyridin-3-yl)-4-oxo-1-((tetrahydrofuran-2-yl)methyl)-1,4-dihydroquinoline-3-carboxylic acid] | 90
19 | CCNC(=O)Nc1cc(-c2nc(C(F)(F)F)cs2)c(-c2ccc3c(c2)c(=O)c(C(=O)O)cn3CCC2CCN(C)CC2)cn1 [Example 89, 6-(6-(3-ethylureido)-4-(4-(trifluoromethyl)thiazol-2-yl)pyridin-3-yl)-1-(2-(1-methylpiperidin-4-yl)ethyl)-4-oxo-1,4-dihydroquinoline-3-carboxylic acid] | 91
20 | CCNC(=O)Nc1cc(-c2nc(C(F)(F)F)cs2)c(-c2ccc3c(c2)c(=O)c(C(=O)O)cn3CC2CCOCC2)cn1 [Example 90, 6-(6-(3-ethylureido)-4-(4-(trifluoromethyl)thiazol-2-yl)pyridin-3-yl)-4-oxo-1-((tetrahydro-2H-pyran-4-yl)methyl)-1,4-dihydroquinoline-3-carboxylic acid] | 97
21 | CCNC(=O)Nc1cc(-c2nc(C(F)(F)F)cs2)c(-c2ccc3c(c2)c(=O)c(C(=O)O)cn3C(CC)CO)cn1 (centres unmarked) [Example 93, 6-(6-(3-ethylureido)-4-(4-(trifluoromethyl)thiazol-2-yl)pyridin-3-yl)-1-(1-hydroxybutan-2-yl)-4-oxo-1,4-dihydroquinoline-3-carboxylic acid] | 95
22 | CCNC(=O)Nc1cc(-c2nc(C(F)(F)F)cs2)c(-c2ccc3c(c2)c(=O)c(C(=O)O)cn3CC2CCN(C)CC2)cn1 [Example 94, 6-(6-(3-ethylureido)-4-(4-(trifluoromethyl)thiazol-2-yl)pyridin-3-yl)-1-((1-methylpiperidin-4-yl)methyl)-4-oxo-1,4-dihydroquinoline-3-carboxylic acid] | 95
23 | CCNC(=O)Nc1cc(-c2nc(C(F)(F)F)cs2)c(-c2ccc3c(c2)c(=O)c(C(=O)NC)cn3[C@H](CO)CC(C)C)cn1 [Example 96, (S)-6-(6-(3-ethylureido)-4-(4-(trifluoromethyl)thiazol-2-yl)pyridin-3-yl)-1-(1-hydroxy-4-methylpentan-2-yl)-N-methyl-4-oxo-1,4-dihydroquinoline-3-carboxamide] | 95
